Structures are written as SMILES. Entries after “also recorded” stand apart in the source; their conditions may differ. A value given as a limit tells only on which side of the number the result lay.

The first assay relates to human LINE-1. In words: Human LINE-1 retrotransposition assay (HeLa cell-based dual-luciferase reporter). The following applies: HeLa cells, reporter plasmid pYX017, 72 h incubation, Firefly/Renilla luciferase; read-out: Human LINE-1 IC50 (μM), Human L1 activity inhibition. As to the method:
Islatravir and other compounds were tested for inhibition of retrotransposition activity of human LINE-1 in HeLa cells according to the following procedure.
HeLa cervical cancer cells were cultivated at 37° C. in a humidified 5% CO2 incubator in Dulbecco's Modified Eagle's Medium (DMEM)—high glucose, with 4500 mg/L glucose, L-glutamine, sodium pyruvate and sodium bicarbonate (Sigma), supplemented with 10% of heat inactivated fetal bovine serum (Thermo Fisher).
Assays were performed using reporter plasmid pYX017 as described (Xie, et al., 2011) with several modifications. The reporter assay was performed in 96-well white optical bottom plates. HeLa cells were seeded in wells 24 h prior to transfection and compound treatment so that cells were approximately 30% confluent on the day of transfection. Different cell plating densities were tested and a density of 2×10^3 cells was determined to be optimal.
Compounds were resuspended in DMSO. Serial dilutions (1:3) were prepared in DMSO. Medium containing different concentrations of the compounds were prepared by adding 2 μl of the compound dilution to 1 ml of the culture medium. The final concentration of DMSO in the medium was 0.2%.
FuGENE® HD transfection reagent (Promega, E2311, Lot 382574 and Lot 397842) was used to transfect the plasmids into the cells. The transfection reagent: DNA mixture was prepared in OpiMEM (Thermo Fisher) according to manufacturer's instructions. Different ratios of transfection reagent to DNA were tested and a ratio of 3:1 was determined to be optimal. Culture medium was removed from the cells and discarded. The transfection reagent: DNA mixture (5 μl) was mixed with the compound containing medium (100 μl/well) and this was added onto the cells of each well. Cells were incubated at 37° C./5% C02 for different incubation time. A 72 h incubation time was determined to be optimal.
Luciferase reporter activity was quantified with the Dual-Luciferase® Reporter Assay System (Promega) according to manufacturer's instructions for multiwell plates except that cells were lysed directly on the multiwell plate with 30 μl of the passive lysis buffer (PLB) for 20 min at room temperature, with gentle shaking to ensure complete cell lysis.
Firefly and Renilla luciferase signals were measured using a SpectraMax i3x Multi-Mode Microplate Reader. Integration times of 100 ms and 10 ms were used to measure the Firefly and Renilla signals respectively. Relative L1 activity is calculated as Firefly/Renilla*1000 or Firefly/Renilla*10,000. Dose response inhibition data were fit to a four parameter logistic equation using non-linear regression (using Graphpad Prism 8), to determine IC50 values for each inhibitor.
In general terms: A reporter such as luciferase makes a cellular process visible.
As usually defined, the IC50 is the midpoint of a concentration-inhibition curve. As to `C[C@H](Cn1cnc2c(N)ncnc21)OCP(=O)(O)O` [Tenofovir], the IC50 amounted to 2.77 µM.

The assay is the same for the next values; noted with them: HeLa cells, summary of Table 1.
As to `C#C[C@@]1(CO)C=C[C@H](n2cc(C)c(=O)[nH]c2=O)O1` [Censavudine, 4′-ethynylstavudine], the “human LINE-1 inhibitor activity compared to the other reverse transcriptase inhibitors tested (in words)” value is given as “unexpectedly better human LINE-1 inhibitor activity; also recorded: surprisingly potent”.
In the case of `C#C[C@]1(CO)O[C@@H](n2cnc3c(N)nc(F)nc32)C[C@@H]1O` [Islatravir, 2′-deoxy-4′-ethynyl-2-fluoroadenosine], the “human LINE-1 inhibitor activity compared to the other reverse transcriptase inhibitors tested (in words)” value was “unexpectedly better human LINE-1 inhibitor activity”.

Staying with this assay, now noted: HeLa cells, summary of Table 1; listed as islatravir.
As to `C#C[C@]1(CO)O[C@@H](n2cnc3c(N)nc(F)nc32)C[C@@H]1O` [Islatravir, 2′-deoxy-4′-ethynyl-2-fluoroadenosine], the “human LINE-1 inhibitor activity compared to the other reverse transcriptase inhibitors tested (in words)” value is “surprisingly potent”.

The assay is the same for the next values; noted with them: Homo sapiens; HeLa cells, reporter plasmid pYX017, 72 h incubation, Firefly/Renilla luciferase; read-out: Human LINE-1 IC50 (μM), Human L1 activity inhibition.
On to `O=C(NCc1c(F)cc(F)cc1F)c1cn2c(c(O)c1=O)C(=O)N1[C@H]3CC[C@H](C3)O[C@@H]1C2` [Bictegravir], for which the IC50 was over 12.4 µM.
Regarding `C#C[C@@]1(CO)C=C[C@H](n2cc(C)c(=O)[nH]c2=O)O1` [Censavudine, 4′-ethynylstavudine], the IC50 was 0.07 µM.
`C#C[C@]1(CO)O[C@@H](n2cc(C)c(O)nc2=O)C[C@@H]1O` [Cpd. No. 2]: the IC50 was 0.393 µM.
Turning to `C#C[C@]1(CO)O[C@@H](n2cc(Br)c(O)nc2=O)C[C@@H]1O` [Cpd. No. 4], the 50% inhibitory concentration (IC50) is 0.489 µM.
On to `C#C[C@]1(CO)O[C@@H](n2ccc(N)nc2=O)C[C@@H]1O` [Cpd. No. 7, 4-amino-1-((2R,4S,5R)-5-ethynyl-4-hydroxy-5 (hydroxymethyl)tetrahydrofuran-2-yl)pyrimidin-2(1H)-one], for which the IC50 was determined as 0.0091 µM.
Take `C#C[C@]1(CO)O[C@@H](n2cc(F)c(N)nc2=O)C[C@@H]1O` [Cpd. No. 9]: the IC50 turned out to be 0.0209 µM.
As for `C#C[C@]1(CO)O[C@@H](n2cnc3c(O)nc(N)nc32)C[C@@H]1O` [Cpd. No. 13], the IC50 came out at 0.00051 µM.
Take `C=C[C@]1(CO)O[C@@H](n2cnc3c(N)nc(F)nc32)C[C@@H]1O` [Cpd. No. 20]: the IC50 is 0.011 µM.
In the case of `C#C[C@]1(CO)O[C@@H](n2cnc3c(N)ncnc32)C[C@@H]1O` [Cpd. No. 23], the IC50 was over 50 µM.
On the same count and under the same terms, next, `C=C[C@]1(CO)O[C@@H](n2ccc(N)nc2=O)C[C@@H]1O` [Cpd. No. 24]: 0.008 µM.
Consider `CC[C@]1(CO)O[C@@H](n2cc(C)c(=O)[nH]c2=O)C[C@@H]1O` [Cpd. No. 26], for which the IC50 came to 2 µM.
In the case of `CC[C@]1(CO)O[C@@H](n2cnc3c(O)nc(N)nc32)C[C@@H]1O` [Cpd. No. 27], the IC50 is 0.003 µM.
As for `C[C@@H]1CCO[C@H]2Cn3cc(C(=O)NCc4ccc(F)cc4F)c(=O)c(O)c3C(=O)N12` [Dolutegravir sodium], the 50% inhibitory concentration (IC50) is over 9.38 µM.
On the same count and under the same terms, in the case of `O=C1Nc2ccc(Cl)cc2[C@@](C#CC2CC2)(C(F)(F)F)O1` [Efavirenz] it was over 0.25 µM.
On the same count and under the same terms, next, `Nc1nc(=O)n([C@@H]2C=C[C@H](CO)O2)cc1F` [Elvucitabine]: 0.09 µM; `Nc1ccn([C@@H]2CS[C@H](CO)O2)c(=O)n1` [Lamivudine]: 0.64 µM; `Cc1ccnc2c1NC(=O)c1cccnc1N2C1CC1` [Nevirapine]: over 50 µM.
The same measure, in the same setting: in the case of `Cc1nnc(C(=O)NC(C)(C)c2nc(C(=O)NCc3ccc(F)cc3)c(O)c(=O)n2C)o1` [Raltegravir potassium] it was over 9.86 µM; in that of `Cc1cc(/C=C/C#N)cc(C)c1Nc1ccnc(Nc2ccc(C#N)cc2)n1` [Rilpivirine], over 15.1 µM; in that of `Cc1cn([C@H]2C=C[C@@H](CO)O2)c(=O)[nH]c1=O` [Stavudine], 0.75 µM.
For `CC(C)OC(=O)OCOP(=O)(CO[C@H](C)Cn1cnc2c(N)ncnc21)OCOC(=O)OC(C)C` [Tenofovir disoproxil], the half-inhibitory concentration (IC50) was determined as 0.2 µM.
Consider `Cc1cn([C@H]2C[C@H](N=[N+]=[N-])[C@@H](CO)O2)c(=O)[nH]c1=O` [Zidovudine], for which the IC50 came out at 0.81 µM.

The values above are taken from US20240285664A1, “LINE-1 INHIBITORS AS COGNITIVE ENHANCERS” (TRANSPOSON THERAPEUTICS, INC., priority 2021, published 2024).
